# Assay results published in PMC7327383, “The affinity and selectivity of α‐adrenoceptor antagonists, antidepressants, and antipsychotics for the human α1A, α1B, and α1D‐adrenoceptors” (Pharmacology Research & Perspectives, 2020).
# Read-outs that look alike come from different tables or passages of the source.
# Legend:
# [1] = target: T1, full-length human α1D-adrenoceptor (Homo sapiens, UniProt P25100); assay: [3H]prazosin whole-cell competition binding, CHO-α1D cells; details: for Log KD α1D site 1: high-affinity component of two-component curve, used for selectivity; for Log KD α1D site 2: low-affinity component of two-component curve; for Kd: Log KD α1D, single-component inhibition curve, given as log KD (negative), mean ± SE mean
# T1 sequence (P25100 1-572): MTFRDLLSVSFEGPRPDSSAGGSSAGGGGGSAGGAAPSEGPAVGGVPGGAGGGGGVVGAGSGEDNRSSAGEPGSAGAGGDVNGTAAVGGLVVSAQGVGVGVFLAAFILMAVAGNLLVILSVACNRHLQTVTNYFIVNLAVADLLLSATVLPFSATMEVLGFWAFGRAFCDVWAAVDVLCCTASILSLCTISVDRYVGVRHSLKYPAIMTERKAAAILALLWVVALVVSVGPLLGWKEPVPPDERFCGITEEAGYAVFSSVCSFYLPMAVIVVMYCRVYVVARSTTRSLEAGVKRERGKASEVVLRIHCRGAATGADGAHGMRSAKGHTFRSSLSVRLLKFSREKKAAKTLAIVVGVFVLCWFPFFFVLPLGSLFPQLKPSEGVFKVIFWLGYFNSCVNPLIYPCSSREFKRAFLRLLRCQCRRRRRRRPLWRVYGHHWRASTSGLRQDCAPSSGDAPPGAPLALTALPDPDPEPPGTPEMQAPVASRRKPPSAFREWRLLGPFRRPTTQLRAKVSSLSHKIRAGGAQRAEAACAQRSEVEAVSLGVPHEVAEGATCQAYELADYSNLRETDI
# human α1A-adrenoceptor = target: T2, human α1A-adrenoceptor (Homo sapiens, UniProt P35348); assay: [3H]prazosin whole-cell competition binding, CHO-α1A cells; details: for Selectivity ratio α1A vs α1D / Selectivity ratio α1A vs α1B: ratio of KD values, 1.0 under vs = none; for Selectivity ratio α1A vs α1D: higher α1A affinity; for Selectivity ratio α1A vs α1B: printed under α1A = higher α1A affinity
# T2 construct: CHO cells stably expressing either the full‐length human α1A, α1B, or α1D‐adrenoceptor
# T2 sequence (P35348 1-466): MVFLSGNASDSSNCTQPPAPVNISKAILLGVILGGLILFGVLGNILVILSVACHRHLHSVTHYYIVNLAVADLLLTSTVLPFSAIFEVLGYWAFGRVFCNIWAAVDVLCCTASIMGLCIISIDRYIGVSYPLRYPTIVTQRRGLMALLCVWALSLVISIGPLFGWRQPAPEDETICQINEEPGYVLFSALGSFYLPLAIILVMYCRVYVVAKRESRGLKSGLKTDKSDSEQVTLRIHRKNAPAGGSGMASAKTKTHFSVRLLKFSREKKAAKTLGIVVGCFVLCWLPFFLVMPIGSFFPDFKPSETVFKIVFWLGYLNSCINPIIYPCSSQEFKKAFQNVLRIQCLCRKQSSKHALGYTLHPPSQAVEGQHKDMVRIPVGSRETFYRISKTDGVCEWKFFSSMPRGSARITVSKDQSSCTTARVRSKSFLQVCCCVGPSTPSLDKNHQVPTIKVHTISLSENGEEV
# human α1B-adrenoceptor = target: T3, human α1B-adrenoceptor (Homo sapiens, UniProt P35368); assay: [3H]prazosin whole-cell competition binding, CHO-α1B cells; details: for selectivity α1B vs α1D: ratio, 1 = no selectivity for a subtype over another; for Log KD α1B / Kd: single-component inhibition curve, given as log KD (negative), mean ± SE mean; for Kd: read-out: Log KD α1B (converted); for Selectivity ratio α1B vs α1D: ratio of KD values, higher α1B affinity, 1.0 under vs = none
# T3 construct: CHO cells stably expressing either the full‐length human α1A, α1B, or α1D‐adrenoceptor
# T3 sequence (P35368 1-520): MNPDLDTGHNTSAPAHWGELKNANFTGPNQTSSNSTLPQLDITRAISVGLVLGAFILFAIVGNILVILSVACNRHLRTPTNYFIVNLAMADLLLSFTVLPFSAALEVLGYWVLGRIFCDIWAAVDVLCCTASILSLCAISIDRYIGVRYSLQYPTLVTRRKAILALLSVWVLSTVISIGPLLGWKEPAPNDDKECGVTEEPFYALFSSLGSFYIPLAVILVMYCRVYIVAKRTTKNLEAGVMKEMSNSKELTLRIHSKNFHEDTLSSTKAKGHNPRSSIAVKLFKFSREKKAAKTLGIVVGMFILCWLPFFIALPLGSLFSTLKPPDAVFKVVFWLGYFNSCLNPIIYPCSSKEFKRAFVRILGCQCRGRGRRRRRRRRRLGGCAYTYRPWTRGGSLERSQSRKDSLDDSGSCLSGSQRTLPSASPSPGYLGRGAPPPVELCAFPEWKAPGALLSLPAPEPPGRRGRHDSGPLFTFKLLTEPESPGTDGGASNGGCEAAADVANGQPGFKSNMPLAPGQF
# [2] = percentage of inhibition through first component, control
# [3] = ratio of KD values, higher α1D affinity (site 1 KD)
# [4] = single-component inhibition curve, given as log KD (negative), mean ± SE mean
# [5] = single-component inhibition curve, given as log KD (negative), mean ± SE mean, read-out: Log KD α1A (converted)
# [6] = log KD from 3H-prazosin whole cell binding, CHO cells, mean ± s.e.mean
# [7] = ratio, 1 = no selectivity for a subtype over another
Compound,Log KD α1D site 1 ([1]; control),Log KD α1D site 2 ([1]; control),"% site 1 α1D [1, 2] [% site 1]","Selectivity ratio α1B vs α1D [1, 3] [fold]",Selectivity ratio α1A vs α1D (human α1A-adrenoceptor) [fold],Selectivity ratio α1A vs α1B (human α1A-adrenoceptor) [fold],Log KD α1A (human α1A-adrenoceptor; [4]),selectivity α1B vs α1D (human α1B-adrenoceptor),Log KD α1B (human α1B-adrenoceptor),Kd [1] [µM],Kd (human α1A-adrenoceptor; [5]) [µM],Kd (human α1B-adrenoceptor) [µM],Selectivity ratio α1B vs α1D (human α1B-adrenoceptor) [fold],also measured
Cc1c[nH]c(=O)n(CCCN2CCN(c3ccccc3OCC(F)(F)F)CC2)c1=O [RS100329],−7.63 ± 0.17,−5.13 ± 0.15,70.5 ± 3.0,9.1,93,851,−9.60 ± 0.05,9.1,−6.67 ± 0.07,,,,,"% site 1 α1D ([1]; two-component inhibition curve, proportion of site 1): -7.63 ± 0.17 -5.13 ± 0.15 70.5 ± 3.0% site 1; Kd (human α1A-adrenoceptor; subtype not given, ligands with α1A selectivity (Table 1: α1A), read-out: affinity): < 0.00025 µM"
CN(C)CC/C=C1\c2ccccc2CSc2ccccc21 [Dosulepin],,,,2.0,34,68,,2.0,,2.63,0.0776,5.25,,
CN1CC[C@]2(CCN3CCc4c(oc5ccccc45)[C@@H]3C2)N(C)C1=O.Cl [MK‐912],−7.30 ± 0.16,−5.50 ± 0.25,61.2 ± 5.5,69,,20,−6.76 ± 0.03,,−5.46 ± 0.05,,,,,"Selectivity ratio α1A vs α1D [1, 3]: 3.5 fold"
CC(C)OC(=O)c1cc2c(OCC(O)CNC(C)(C)C)cccc2[nH]1 (centres unmarked) [SDZ 21009],,,,,,,,>12,,,,,,"Log KD α1D [1, 6]: -5.09 ± 0.18; Log KD α1A (human α1A-adrenoceptor; [6]): -5.24 ± 0.07; selectivity α1A vs 1D (human α1A-adrenoceptor; [7]): 1.4; selectivity α1A vs α1B (human α1A-adrenoceptor; [7]): >17; Log IC50 α1B (human α1B-adrenoceptor; log IC50 bound): Log IC50>-4"
CN(CCCN1c2ccccc2CCc2ccccc21)CC(=O)c1ccc(Cl)cc1 [Lofepramine],,,,,37,32,,,,4.27,0.115,3.63,1.2,
Cc1ccc(Sc2ccccc2N2CCNCC2)c(C)c1 [Vortioxetine],,,,,7.8,7.9,,,,3.72,0.479,3.8,1.0,
